Test results taken from ChEMBL document CHEMBL2021804, “Synthesis and evaluation of piperidine urea derivatives as efficacious 11β-hydroxysteroid dehydrogenase type 1 inhibitors in diabetic ob/ob mice” (Bioorg Med Chem Lett, 2012).

Columns and labels:
[1] = molecular target: 11-beta-hydroxysteroid dehydrogenase 1 (Homo sapiens, UniProt P28845); test: Inhibition of human 11beta-HSD1 expressed in HEK293 cells assessed as [3H]cortisol production after 60 mins by SPA; format: cell-based
[2] = molecular target: 11-beta-hydroxysteroid dehydrogenase 1 (Mus musculus, UniProt P50172); test: Inhibition of mouse 11beta-HSD1 expressed in HEK293 cells assessed as [3H]cortisol production after 60 mins by SPA; format: cell-based
11-beta-hydroxysteroid dehydrogenase 1 (Mus musculus, UniProt P50172), sequence (P50172 whole entry): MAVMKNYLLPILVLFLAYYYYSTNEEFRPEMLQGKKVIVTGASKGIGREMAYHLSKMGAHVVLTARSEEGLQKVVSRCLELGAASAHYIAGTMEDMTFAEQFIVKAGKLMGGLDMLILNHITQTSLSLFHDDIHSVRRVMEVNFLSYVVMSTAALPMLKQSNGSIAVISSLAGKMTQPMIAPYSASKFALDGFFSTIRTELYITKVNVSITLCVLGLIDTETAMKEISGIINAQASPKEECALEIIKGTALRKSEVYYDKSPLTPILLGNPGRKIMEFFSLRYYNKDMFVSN

HEK293 [3] = test: Selectivity ratio of IC50 for human 11beta-HSD1 expressed in HEK293 cells to IC50 for mouse 11beta-HSD1 expressed in HEK293 cells; format: cell-based
[4] = molecular target: T1, 11-beta-hydroxysteroid dehydrogenase type 2 (Homo sapiens, UniProt P80365); test: Inhibition of human 11beta-HSD2 expressed in HEK293 cells assessed as [3H]cortisol production after 60 mins by SPA; format: cell-based
T1 sequence (P80365 whole entry): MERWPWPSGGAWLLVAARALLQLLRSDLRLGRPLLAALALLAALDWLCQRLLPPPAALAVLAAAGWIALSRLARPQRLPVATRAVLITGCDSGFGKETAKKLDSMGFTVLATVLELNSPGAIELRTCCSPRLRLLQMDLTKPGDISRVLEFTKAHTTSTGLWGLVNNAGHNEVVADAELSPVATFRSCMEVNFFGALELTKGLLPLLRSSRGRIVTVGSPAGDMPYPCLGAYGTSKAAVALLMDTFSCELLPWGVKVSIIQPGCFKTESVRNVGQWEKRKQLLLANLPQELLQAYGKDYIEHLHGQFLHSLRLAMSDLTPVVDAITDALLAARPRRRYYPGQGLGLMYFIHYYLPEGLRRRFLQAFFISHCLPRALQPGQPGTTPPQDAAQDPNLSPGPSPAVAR

[5] = molecular target: T2, 11-beta-hydroxysteroid dehydrogenase type 2 (Mus musculus, UniProt P51661); test: Inhibition of mouse 11beta-HSD2 expressed in HEK293 cells assessed as [3H]cortisol production after 60 mins by SPA; format: cell-based
T2 sequence (P51661 whole entry): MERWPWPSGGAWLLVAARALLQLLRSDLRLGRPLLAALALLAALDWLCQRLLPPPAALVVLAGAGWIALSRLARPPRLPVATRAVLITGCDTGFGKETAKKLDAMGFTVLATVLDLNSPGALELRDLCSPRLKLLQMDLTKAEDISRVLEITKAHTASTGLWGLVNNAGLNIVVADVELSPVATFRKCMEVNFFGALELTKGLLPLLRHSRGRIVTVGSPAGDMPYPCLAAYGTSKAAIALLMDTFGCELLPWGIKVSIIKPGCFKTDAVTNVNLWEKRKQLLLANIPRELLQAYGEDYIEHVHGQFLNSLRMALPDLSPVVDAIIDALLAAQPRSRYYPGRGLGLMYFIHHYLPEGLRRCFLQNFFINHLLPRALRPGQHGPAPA

[6] = Tmax in po dosed Sprague-Dawley rat; format: ADME, organism-based; conditions: in vivo
[7] = Cmax in po dosed Sprague-Dawley rat; format: ADME, organism-based; parameters: route oral; conditions: in vivo
[8] = AUC (0 to t) in po dosed Sprague-Dawley rat; format: ADME, organism-based; conditions: plasma
[9] = AUC (0 to infinity) in po dosed Sprague-Dawley rat; format: ADME, organism-based; parameters: route oral, time infinity; conditions: plasma
[10] = Mean residence time in po dosed Sprague-Dawley rat; format: ADME, organism-based; conditions: in vivo
[11] = Half life in po dosed Sprague-Dawley rat; format: ADME, organism-based; conditions: in vivo
HEK293 [12] = test: Selectivity ratio of IC50 for human 11beta-HSD2 expressed in HEK293 cells to IC50 for human 11beta-HSD1 expressed in HEK293 cells; format: cell-based
[13] = AUC in Sprague-Dawley rat at 5 mg/kg, po; format: ADME, organism-based; parameters: dose 5 mg/kg, route oral; conditions: plasma
Mus musculus [14] = test: Antidiabetic activity in ob/ob mouse type 2 diabetes model assessed as reduction in nonfasting blood glucose level at 50 mg/kg, ip once daily for 5 days; format: functional; parameters: scale not given: the % may be the effect or the level left; conditions: route intraperitoneal
Mus musculus [15] = test: Antidiabetic activity in ob/ob mouse type 2 diabetes model assessed as reduction in fasting blood glucose level at 50 mg/kg, ip once daily for 5 days measured on day 10; format: functional; parameters: scale not given: the % may be the effect or the level left; conditions: route intraperitoneal
Mus musculus [16] = test: Antidiabetic activity in ob/ob mouse type 2 diabetes model assessed as reduction in fasting blood glucose level at 50 mg/kg, ip once daily for 5 days measured on day 15; format: functional; parameters: scale not given: the % may be the effect or the level left; conditions: route intraperitoneal
Mus musculus [17] = test: Antidiabetic activity in ob/ob mouse type 2 diabetes model assessed as reduction in fasting blood glucose level at 50 mg/kg, ip once daily for 5 days measured on day 20; format: functional; parameters: scale not given: the % may be the effect or the level left; conditions: route intraperitoneal
Mus musculus [18] = test: Antidiabetic activity in ob/ob mouse type 2 diabetes model assessed as reduction in blood glucose level at 50 mg/kg, ip once daily for 5 days measured on day 10; format: functional; parameters: scale not given: the % may be the effect or the level left; conditions: route intraperitoneal
Mus musculus [19] = test: Antidiabetic activity in ob/ob mouse type 2 diabetes model assessed as reduction in blood glucose level at 50 mg/kg, ip once daily for 5 days measured on day 15; format: functional; parameters: scale not given: the % may be the effect or the level left; conditions: route intraperitoneal
Mus musculus [20] = test: Antidiabetic activity in ob/ob mouse type 2 diabetes model assessed as reduction in blood glucose level at 50 mg/kg, ip once daily for 5 days measured on day 20; format: functional; parameters: scale not given: the % may be the effect or the level left; conditions: route intraperitoneal
Mus musculus [21] = test: Antidiabetic activity in ob/ob mouse type 2 diabetes model assessed as reduction in fasting blood glucose level at 50 mg/kg, ip once daily for 20 days; format: functional; parameters: scale not given: the % may be the effect or the level left; conditions: route intraperitoneal
Mus musculus [22] = test: Antidiabetic activity in ob/ob mouse type 2 diabetes model assessed as reduction in nonfasting blood glucose level at 50 mg/kg, ip once daily for 20 days; format: functional; parameters: scale not given: the % may be the effect or the level left; conditions: route intraperitoneal
Mus musculus [23] = test: Toxicity in ob/ob mouse type 2 diabetes model assessed as effect on body weight at 50 mg/kg, ip once daily for 20 days measured every 5 days for 20 days; format: organism-based; parameters: dose 50 mg/kg, route intraperitoneal; conditions: in vivo, 480 h
Mus musculus [24] = test: Toxicity in ob/ob mouse type 2 diabetes model assessed as effect on food intake at 50 mg/kg, ip once daily for 20 days measured every 4 days for 20 days; format: organism-based; parameters: dose 50 mg/kg, route intraperitoneal; conditions: in vivo, 480 h

11-beta-hydroxysteroid dehydrogenase 1 (Homo sapiens, UniProt P28845), sequence (P28845 whole entry): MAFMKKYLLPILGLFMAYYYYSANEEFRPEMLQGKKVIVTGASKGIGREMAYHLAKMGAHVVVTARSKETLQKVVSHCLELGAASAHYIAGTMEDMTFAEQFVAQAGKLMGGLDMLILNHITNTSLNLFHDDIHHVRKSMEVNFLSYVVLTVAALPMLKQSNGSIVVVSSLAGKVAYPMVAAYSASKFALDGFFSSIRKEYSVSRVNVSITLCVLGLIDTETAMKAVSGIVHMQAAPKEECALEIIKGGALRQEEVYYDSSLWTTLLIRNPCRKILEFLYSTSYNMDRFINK

O=C(NC12CC3CC(CC(C3)C1)C2)c1ccc(CN2C(=O)Nc3ccc(Cl)cc3S2(=O)=O)cc1
EC50 [1]: 47 nM | EC50 [2]: 14 nM

O=C(N1CCC(CN2C(=O)Nc3ccc(Cl)cc3S2(=O)=O)CC1)N(C1CCCCCC1)C1CC1
EC50 [1]: 517 nM | EC50 [2]: 10 nM | Ratio IC50 (HEK293 [3]): 3

O=C(c1cccc(CN2C(=O)Nc3ccc(Cl)cc3S2(=O)=O)c1)N(C1CCCCC1)C1CC1
EC50 [1]: 3 nM | EC50 [2]: 58 nM

O=C(c1ccc(CN2C(=O)Nc3ccc(Cl)cc3S2(=O)=O)cc1)N(C1CCCCC1)C1CC1
EC50 [1]: 60 nM | EC50 [2]: 185 nM

CN(C(=O)c1cccc(CN2C(=O)Nc3ccc(Cl)cc3S2(=O)=O)c1)C1CCCCCC1
EC50 [1]: 4 nM | EC50 [2]: 401 nM

O=C(NC1CCCCCC1)N1CCC(CN2C(=O)Nc3ccc(Cl)cc3S2(=O)=O)CC1
EC50 [1]: 283 nM | EC50 [2]: 17 nM | Ratio IC50 (HEK293 [3]): 3

CN(C(=O)N1CCC(CN2C(=O)Nc3ccc(Cl)cc3S2(=O)=O)CC1)C1C2CC3CC(C2)CC1C3 (configuration not stated)
EC50 [1]: 158 nM | EC50 [2]: 2 nM | EC50 [4]: 720 nM | EC50 [5]: > 100000 nM | Ratio IC50 (HEK293 [3]): 3

O=C(c1ccc(CN2C(=O)Nc3ccc(Cl)cc3S2(=O)=O)cc1)N(C1CCCCCC1)C1CC1
EC50 [1]: 55 nM | EC50 [2]: 84 nM

CC1(C)[C@@H](O[C@H]2O[C@H](C(=O)O)[C@@H](O)[C@H](O)[C@H]2O[C@@H]2O[C@H](C(=O)O)[C@@H](O)[C@H](O)[C@H]2O)CC[C@]2(C)[C@H]3C(=O)C=C4[C@@H]5C[C@@](C)(C(=O)O)CC[C@]5(C)CC[C@@]4(C)[C@]3(C)CC[C@@H]12 [GLYCYRRHIZIN]
EC50 [1]: 10 nM | EC50 [2]: 8 nM

CN(C(=O)c1ccc(CN2C(=O)Nc3ccc(Cl)cc3S2(=O)=O)cc1)C1CCCCCC1
EC50 [1]: 90 nM | EC50 [2]: 210 nM

O=C(NC1CCCCCCC1)c1ccc(CN2C(=O)Nc3ccc(Cl)cc3S2(=O)=O)cc1
EC50 [1]: 443 nM | EC50 [2]: 180 nM

O=C(c1cccc(CN2C(=O)Nc3ccc(Cl)cc3S2(=O)=O)c1)N(C1CCCCCC1)C1CC1
EC50 [1]: 1 nM | EC50 [2]: 258 nM | Tmax [6]: 2.3 h | Cmax [7]: 3.86 ng/mL | AUC(0-t) [8]: 15.5 ng·h/mL | AUC(0-inf) [9]: 16.1 ng·h/mL | MRT [10]: 4.02 h | half-life [11]: 2.02 h

CN(C(=O)c1ccc(CN2C(=O)Nc3ccc(Cl)cc3S2(=O)=O)cc1)C12CC3CC(CC(C3)C1)C2
EC50 [1]: 70 nM | EC50 [2]: 55 nM

CN(C(=O)c1cccc(CN2C(=O)Nc3ccc(Cl)cc3S2(=O)=O)c1)C1C2CC3CC(C2)CC1C3 (configuration not stated)
EC50 [1]: 4 nM | EC50 [2]: 69 nM

O=C(NC1CCCCC1)c1ccc(CN2C(=O)Nc3ccc(Cl)cc3S2(=O)=O)cc1
EC50 [1]: 686 nM | EC50 [2]: 529 nM

CN(C(=O)N1CCC(CN2C(=O)Nc3ccc(Cl)cc3S2(=O)=O)CC1)C1CCCCCC1
EC50 [1]: 21 nM | EC50 [2]: 0.41 nM | EC50 [4]: 860 nM | EC50 [5]: > 100000 nM | Ratio IC50 (HEK293 [3]): 3 | Ratio IC50 (HEK293 [12]): 40 | Tmax [6]: 2 h | Cmax [7]: 46.8 ng/mL | AUC(0-t) [8]: 173 ng·h/mL | AUC(0-inf) [9]: 209 ng·h/mL | MRT [10]: 4.24 h | half-life [11]: 2.3 h | AUC [13]: 147 ng·h/mL | Activity (Mus musculus [14]): 25% | Activity (Mus musculus [15]): 33.3% | Activity (Mus musculus [16]): 39.4% | Activity (Mus musculus [17]): 36.1% | Activity (Mus musculus [18]): 27.9% | Activity (Mus musculus [19]): 34.6% | Activity (Mus musculus [20]): 35.6% | Activity (Mus musculus [21]): 31.4% | Activity (Mus musculus [22]): 25.7% | Activity (Mus musculus [23]): Non-toxic | Activity (Mus musculus [24]): Non-toxic

O=C(NC1CCCCCC1)c1ccc(CN2C(=O)Nc3ccc(Cl)cc3S2(=O)=O)cc1
EC50 [1]: 802 nM | EC50 [2]: 145 nM

O=C(N1CCC(CN2C(=O)Nc3ccc(Cl)cc3S2(=O)=O)CC1)N(C1CCCCC1)C1CC1
EC50 [1]: 121 nM | EC50 [2]: 37 nM | EC50 [4]: 2200 nM | EC50 [5]: > 100000 nM | Ratio IC50 (HEK293 [3]): 3
